Measurements as given in PMC7565984, “A Phosphorylation-Induced Switch in the Nuclear Localization Sequence of the Intrinsically Disordered NUPR1 Hampers Binding to Importin” (Biomolecules, 2020).
pKd: −log10 of the molar value. Where a SMILES comes first, the peptide text is derived from it. [ ]: non-standard residue; d: D form. pT = C[C@@H](OP(=O)(O)O)[C@H](N)C(=O)O

Key:
[1] = molecular target: T1, human importin α3 (Impα3) (Homo sapiens, UniProt O00629); assay: ITC binding of NLS-NUPR1 peptides / NUPR1 to Impα3; conditions: for ΔH (binding enthalpy), Impα3 / −TΔS (entropic contribution), Impα3 / n (stoichiometry; fraction of binding-competent protein), Impα3 / pKd: ITC, 298 K; for ΔH (binding enthalpy), Impα3 / −TΔS (entropic contribution), Impα3 / pKd: Tris 50 mM pH 8; for ΔH (binding enthalpy), Impα3: absolute error 0.5 kcal/mol; for −TΔS (entropic contribution), Impα3: calculated from Kd and ΔH, absolute error 0.7 kcal/mol; for n (stoichiometry; fraction of binding-competent protein), Impα3: absolute error 0.2, value in parenthesis = fixed in the fit due to low affinity; for Decrease of the affinity for Impα3 relative to wt peptide: from ITC Kd values; for pKd: importin 10–20 μM in cell, peptide 150–300 μM in syringe, 1:1 model, at least duplicates, relative error 30%, read-out: Kd (dissociation constant), Impα3
T1 construct: although the IBB region maintains its independence within the whole Impα3 in terms of conformation; His-tag (N); made in house; host or cells: Escherichia coli BL21 (DE3)
T1 sequence (O00629 1-521): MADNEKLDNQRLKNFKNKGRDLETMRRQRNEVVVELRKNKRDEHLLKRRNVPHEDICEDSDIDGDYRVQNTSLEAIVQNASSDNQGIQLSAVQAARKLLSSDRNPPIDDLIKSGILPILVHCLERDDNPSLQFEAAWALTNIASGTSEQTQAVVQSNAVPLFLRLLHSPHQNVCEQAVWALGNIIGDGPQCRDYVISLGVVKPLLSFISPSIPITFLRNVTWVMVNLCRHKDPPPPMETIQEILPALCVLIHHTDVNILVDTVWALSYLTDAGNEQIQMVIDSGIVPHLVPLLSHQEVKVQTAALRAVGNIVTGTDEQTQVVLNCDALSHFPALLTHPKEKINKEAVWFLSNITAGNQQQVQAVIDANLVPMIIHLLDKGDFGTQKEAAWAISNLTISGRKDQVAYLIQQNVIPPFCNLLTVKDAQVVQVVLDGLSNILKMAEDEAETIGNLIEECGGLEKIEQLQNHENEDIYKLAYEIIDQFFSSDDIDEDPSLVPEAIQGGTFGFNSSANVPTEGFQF
Description: (§1) The experimental set-up and data processing of ITC experiments has been described previously. Calorimetric titrations, performed in an Auto-iTC200 calorimeter (MicroCal, Malvern-Panalytical, Malvern, UK) consisted of series of 19 2-μL injections, with 150 s time spacing and a 750-rpm stirring speed. Impα3 or ΔImpα3 (at 10–20 μM) was loaded into the calorimetric cell and NLS-NUPR1 peptides in the syringe (150–300 μM); all solutions were prepared in buffer Tris 50 mM, pH 8. […] The binding affinity (association constant) and the binding enthalpy were estimated through a least-squares nonlinear regression data analysis, from which the Gibbs energy and the entropic contribution to the binding were calculated using well-known thermodynamic relationships. Since the binding stoichiometry is constrained by the model, the parameter n provides a fraction of the active or binding competent protein. Experiments for each peptide and importin species were performed, at least, in duplicates.

[2] = molecular target: T2, ΔImpα3 (importin α3 without the IBB domain, residues 64-521) (Homo sapiens, UniProt O00629); assay: ITC binding of NLS-NUPR1 peptides / NUPR1 to ΔImpα3; conditions: ITC, 298 K; for ΔH (binding enthalpy), ΔImpα3: absolute error 0.5 kcal/mol; for −TΔS (entropic contribution), ΔImpα3: calculated from Kd and ΔH, absolute error 0.7 kcal/mol; for n (stoichiometry; fraction of binding-competent protein), ΔImpα3: absolute error 0.2, value in parenthesis = fixed in the fit due to low affinity
T2 construct: The His-tagged ΔImpα3 (residues 64-521) was obtained from BL21 (DE3) cells as described; His-tag; made in house; host or cells: Escherichia coli BL21 (DE3)
T2 sequence (O00629 64-521): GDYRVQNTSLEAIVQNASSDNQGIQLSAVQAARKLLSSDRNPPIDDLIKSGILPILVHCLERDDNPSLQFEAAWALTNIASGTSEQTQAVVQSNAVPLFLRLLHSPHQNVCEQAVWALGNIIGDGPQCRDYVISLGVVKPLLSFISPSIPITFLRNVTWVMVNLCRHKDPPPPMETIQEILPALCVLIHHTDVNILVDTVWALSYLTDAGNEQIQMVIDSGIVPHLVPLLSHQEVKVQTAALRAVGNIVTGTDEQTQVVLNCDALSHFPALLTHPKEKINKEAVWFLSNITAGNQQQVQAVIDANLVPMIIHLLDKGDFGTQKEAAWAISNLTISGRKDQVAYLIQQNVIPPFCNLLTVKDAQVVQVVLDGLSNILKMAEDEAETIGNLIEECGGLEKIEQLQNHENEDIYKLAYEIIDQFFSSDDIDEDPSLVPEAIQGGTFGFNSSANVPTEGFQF
Description: as §1

[3] = Translational diffusion by NMR DOSY (hydrodynamic properties); type: physicochemical; conditions: for D, translational diffusion coefficient: 283 K, pH 7.2, 50-mM deuterated Tris, 100% D2O, peptide 120 μM; for Rh, hydrodynamic radius from D: from the translational diffusion coefficient of dioxane (Rh = 2.12 Å) added to each sample
Description: Concentrations of peptides in all DOSY experiments were 120 μM, and 128 scans, where the gradient strength was varied, were acquired for each curve. Translational self-diffusion measurements were performed with the pulsed gradient spin-echo sequence in the presence of 100% D2O. Experimental details have been described elsewhere. Briefly, the gradient strength was varied in sixteen linear steps between 2% and 95% of the total power of the gradient coil. The gradient strength was previously calibrated by using the value of the translational diffusion coefficient, D, for the residual proton water line in a sample containing 100% D2O in a 5-mm tube [34]. In our experiments for each peptide, the duration of the gradient was 2.25 ms, the time between the two pulse gradients in the pulse sequence was set to 200 ms, and the recovery delay between the bipolar gradients was set to 100 μs. The methyl groups with signals between 1.0 and 0.80 ppm were used for integration. Fitting of the exponential curves obtained from experimental data was carried out with KaleidaGraph (Synergy Software, Version 3.5), as described. A final concentration of 1% of dioxane, which was assumed to have a hydrodynamic radius Rh = 2.12 Å [34], was added to the solutions of each of the peptides to have a comparison for estimating their sizes.

| Compound | ΔH (binding enthalpy), Impα3 [1] | −TΔS (entropic contribution), Impα3 [1] | n (stoichiometry; fraction of binding-competent protein), Impα3 [1] | Decrease of the affinity for Impα3 relative to wt peptide [1] | ΔH (binding enthalpy), ΔImpα3 ([2]; Tris 50 mM pH 8) | −TΔS (entropic contribution), ΔImpα3 ([2]; Tris 50 mM pH 8) | n (stoichiometry; fraction of binding-competent protein), ΔImpα3 [2] | D, translational diffusion coefficient [3] | Rh, hydrodynamic radius from D [3] | pKd [1] | pKd ([2]; Tris 50 mM pH 8, importin 10–20 μM in cell, peptide 150–300 μM in syringe, 1:1 model, at least duplicates, relative error 30%, read-out: Kd (dissociation constant), ΔImpα3) |
| --- | --- | --- | --- | --- | --- | --- | --- | --- | --- | --- | --- |
| CC(=O)N[C@@H](Cc1ccc(O)cc1)C(=O)N[C@H](C(=O)N[C@@H](CC(N)=O)C(=O)N[C@@H](CCCNC(=N)N)C(=O)N1CCC[C@H]1C(=O)N[C@@H](CO)C(=O)N1CCC[C@H]1C(=O)NCC(=O)NCC(=O)N[C@@H](Cc1c[nH]cn1)C(=O)N[C@@H](CCC(=O)O)C(=O)N[C@@H](CCCNC(=N)N)C(=O)N[C@@H](C)C(=O)N[C@@H](CC(C)C)C(=O)N[C@H](C(=O)N[C@H](C(=O)N[C@@H](CCCCN)C(=O)N[C@@H](CC(C)C)C(=O)N[C@@H](CCC(N)=O)C(=O)N[C@@H](CC(N)=O)C(=O)N[C@@H](CO)C(=O)N[C@@H](CCC(=O)O)C(N)=O)[C@@H](C)O)C(C)C)[C@@H](C)O [K65A] (Ac-YTNRPSPGGHERALVTKLQNSE-NH2) | -2.8 kcal/mol | -4.6 kcal/mol | 1.4 | two-fold | -10.2 kcal/mol | 2.6 kcal/mol | 1.4 | 1.94 ± 0.08 cm^2 s^−1 × 10^6 | 11 ± 1 Å |  |  |
| CC(=O)N[C@@H](Cc1ccc(O)cc1)C(=O)N[C@H](C(=O)N[C@@H](CC(N)=O)C(=O)N[C@@H](CCCNC(=N)N)C(=O)N1CCC[C@H]1C(=O)N[C@@H](CO)C(=O)N1CCC[C@H]1C(=O)NCC(=O)NCC(=O)N[C@@H](Cc1c[nH]cn1)C(=O)N[C@@H](CCC(=O)O)C(=O)N[C@@H](CCCNC(=N)N)C(=O)N[C@@H](CCCCN)C(=O)N[C@@H](CC(C)C)C(=O)N[C@H](C(=O)N[C@H](C(=O)N[C@@H](C)C(=O)N[C@@H](CC(C)C)C(=O)N[C@@H](CCC(N)=O)C(=O)N[C@@H](CC(N)=O)C(=O)N[C@@H](CO)C(=O)N[C@@H](CCC(=O)O)C(N)=O)[C@@H](C)O)C(C)C)[C@@H](C)O [K69A] (Ac-YTNRPSPGGHERKLVTALQNSE-NH2) | -10.8 kcal/mol | 4.0 kcal/mol | 1.3 | six-fold | -21.3 kcal/mol | 14.3 kcal/mol | 1.4 | 1.79 ± 0.06 cm^2 s^−1 × 10^6 | 12 ± 2 Å |  |  |
| CC(=O)N[C@@H](Cc1ccc(O)cc1)C(=O)N[C@H](C(=O)N[C@@H](CC(N)=O)C(=O)N[C@@H](CCCNC(=N)N)C(=O)N1CCC[C@H]1C(=O)N[C@@H](CO)C(=O)N1CCC[C@H]1C(=O)NCC(=O)NCC(=O)N[C@@H](Cc1c[nH]cn1)C(=O)N[C@@H](CCC(=O)O)C(=O)N[C@@H](CCCNC(=N)N)C(=O)N[C@@H](CCCCN)C(=O)N[C@@H](CC(C)C)C(=O)N[C@H](C(=O)N[C@@H](CCC(=O)O)C(=O)N[C@@H](C)C(=O)N[C@@H](CC(C)C)C(=O)N[C@@H](CCC(N)=O)C(=O)N[C@@H](CC(N)=O)C(=O)N[C@@H](CO)C(=O)N[C@@H](CCC(=O)O)C(N)=O)C(C)C)[C@@H](C)O [T68EK69A] (Ac-YTNRPSPGGHERKLVEALQNSE-NH2) | -7.5 kcal/mol | 1.0 kcal/mol |  |  | -21.2 kcal/mol | 14.7 kcal/mol |  | 1.87 ± 0.08 cm^2 s^−1 × 10^6 | 11 ± 1 Å | 4.77 | 4.77 |
| CC(=O)N[C@@H](Cc1ccc(O)cc1)C(=O)N[C@H](C(=O)N[C@@H](CC(N)=O)C(=O)N[C@@H](CCCNC(=N)N)C(=O)N1CCC[C@H]1C(=O)N[C@@H](CO)C(=O)N1CCC[C@H]1C(=O)NCC(=O)NCC(=O)N[C@@H](Cc1c[nH]cn1)C(=O)N[C@@H](CCC(=O)O)C(=O)N[C@@H](CCCNC(=N)N)C(=O)N[C@@H](CCCCN)C(=O)N[C@@H](CC(C)C)C(=O)N[C@H](C(=O)N[C@@H](CCC(=O)O)C(=O)N[C@@H](CCCCN)C(=O)N[C@@H](CC(C)C)C(=O)N[C@@H](CCC(N)=O)C(=O)N[C@@H](CC(N)=O)C(=O)N[C@@H](CO)C(=O)N[C@@H](CCC(=O)O)C(N)=O)C(C)C)[C@@H](C)O [T68E] (Ac-YTNRPSPGGHERKLVEKLQNSE-NH2) | -11.1 kcal/mol | 4.7 kcal/mol |  |  | -17.5 kcal/mol | 10.8 kcal/mol |  | 2.17 ± 0.06 cm^2 s^−1 × 10^6 | 10 ± 1 Å |  |  |
| CC(=O)N[C@@H](Cc1ccc(O)cc1)C(=O)N[C@H](C(=O)N[C@@H](CC(N)=O)C(=O)N[C@@H](CCCNC(=N)N)C(=O)N1CCC[C@H]1C(=O)N[C@@H](CO)C(=O)N1CCC[C@H]1C(=O)NCC(=O)NCC(=O)N[C@@H](Cc1c[nH]cn1)C(=O)N[C@@H](CCC(=O)O)C(=O)N[C@@H](CCCNC(=N)N)C(=O)N[C@@H](CCCCN)C(=O)N[C@@H](CC(C)C)C(=O)N[C@H](C(=O)N[C@H](C(=O)N[C@@H](CCCCN)C(=O)N[C@@H](CC(C)C)C(=O)N[C@@H](CCC(N)=O)C(=O)N[C@@H](CC(N)=O)C(=O)N[C@@H](CO)C(=O)N[C@@H](CCC(=O)O)C(N)=O)[C@@H](C)OP(=O)(O)O)C(C)C)[C@@H](C)O [pT68] (Ac-YTNRPSPGGHERKLV[pT]KLQNSE-NH2) | -14.8 kcal/mol |  |  |  | -28.2 kcal/mol | 22.0 kcal/mol |  | 1.89 ± 0.08 cm^2 s^−1 × 10^6 | 11 ± 1 Å | 4.57 |  |
